Experimental findings from patent US20110086759A1, “CHEMICAL COMPOUNDS” (SYNGENTA CROP PROTECTION, INC., priority 2007, published 2011) are described below.

Holding throughout (type): in vivo
Assay [1] concerns Alopecurus myosuroides (ALOMY). Kind of assay: Pre-emergence biological efficacy, glasshouse pot test. To be noted: 312 h. Here is the method:
(§1) Seeds of Alopecurus myosuroides (ALOMY), Setaria faberi (SETFA), Echinochloa crus-galli (ECHCG), Solanum nigrum (SOLNI), Amaranthus retoflexus (AMARE) and Ipomea hederaceae (IPOHE) were sown in standard soil in pots. After cultivation for one day under controlled conditions in a glasshouse (at 24/16° C., day/night; 14 hours light; 65% humidity), the plants were sprayed with an aqueous spray solution derived from the formulation of the technical active ingredient in acetone/water (50:50) solution containing 0.5% Tween 20 (polyoxyethelyene sorbitan monolaurate, CAS RN 9005-64-5) to give a final dose of 1000 or 250 g/ha of test compound.
(§2) The test plants were then grown under controlled conditions in the glasshouse (at 24/16° C., day/night; 14 hours light; 65% humidity) and watered twice daily. After 13 days the test was evaluated (100=total damage to plant; 0=no damage to plant).

For assay [2], the system named is Echinochloa crus-galli (ECHCG). The assay is described as above. To be noted: 312 h. The procedure: as §1, §2
In assay [3] the test system is Setaria faberi (SETFA). The assay is described as above. To be noted: 312 h. Here is the method:
as §1, §2

In assay [4] the test system is Amaranthus retoflexus (AMARE). Described as above. To be noted: Amaranthus retroflexus, 312 h. Here is the method: as §1, §2
Assay [5] has as its system Ipomea hederaceae (IPOHE). The assay is described as above. To be noted: Ipomoea hederacea, 312 h. The procedure:
as §1, §2

Assay [6] has as its system Solanum nigrum (SOLNI). Described as above. To be noted: 312 h. The procedure:
as §1, §2

Assay [7] concerns Alopecurus myosuroides (ALOMY). Kind of assay: Post-emergence biological efficacy, glasshouse pot test. To be noted: 312 h. Here is the method: as §1, with “8 days” for “one day”
(§3) The test plants were then grown on under controlled conditions in a glasshouse (at 24/16° C., day/night; 14 hours light; 65% humidity) and watered twice daily. After 13 days the test was evaluated (100=total damage to plant; 0=no damage to plant).

For assay [8], the system named is Echinochloa crus-galli (ECHCG). The assay is described as above. To be noted: 312 h. The procedure: as §1, with “8 days” for “one day”
as §3

In assay [9] the test system is Setaria faberi (SETFA). Described as above. To be noted: 312 h. Here is the method: as §1, with “8 days” for “one day”
as §3

Assay [10] has as its system Amaranthus retoflexus (AMARE). Described as above. To be noted: Amaranthus retroflexus, 312 h. Here is the method: as §1, with “8 days” for “one day”
as §3

The test system of assay [11] is Ipomea hederaceae (IPOHE). The assay is described as above. To be noted: Ipomoea hederacea, 312 h. Here is the method:
as §1, with “8 days” for “one day”
as §3

Assay [12] has as its system Solanum nigrum (SOLNI). The description is as above. To be noted: 312 h. The procedure:
as §1, with “8 days” for “one day”
as §3

Setting [13] is: pre-emergence, rate 1,000 g/ha, evaluated after 13 days (100=total damage to plant; 0=no damage), read-out: Percentage damage caused to weed species, ALOMY.
Setting [14] is: pre-emergence, rate 1,000 g/ha, evaluated after 13 days (100=total damage to plant; 0=no damage), read-out: Percentage damage caused to weed species, ECHCG.
Where [15] appears, read: pre-emergence, rate 1,000 g/ha, evaluated after 13 days (100=total damage to plant; 0=no damage), read-out: Percentage damage caused to weed species, SETFA.
The mark [16] stands for this setting: pre-emergence, rate 1,000 g/ha, evaluated after 13 days (100=total damage to plant; 0=no damage), read-out: Percentage damage caused to weed species, AMARE.
The mark [17] stands for this setting: pre-emergence, rate 1,000 g/ha, evaluated after 13 days (100=total damage to plant; 0=no damage), read-out: Percentage damage caused to weed species, IPOHE.
The mark [18] stands for this setting: pre-emergence, rate 1,000 g/ha, evaluated after 13 days (100=total damage to plant; 0=no damage), read-out: Percentage damage caused to weed species, SOLNI.
The mark [19] stands for this setting: Rate 1,000 g/ha, post-emergence spray, evaluated after 13 days (100=total damage to plant; 0=no damage to plant), read-out: Percentage damage caused to weed species, post-emergence, ALOMY.
Setting [20] is: Rate 1,000 g/ha, post-emergence spray, evaluated after 13 days (100=total damage to plant; 0=no damage to plant), read-out: Percentage damage caused to weed species, post-emergence, ECHCG.
[21] abbreviates: Rate 1,000 g/ha, post-emergence spray, evaluated after 13 days (100=total damage to plant; 0=no damage to plant), read-out: Percentage damage caused to weed species, post-emergence, SETFA.
Setting [22] is: Rate 1,000 g/ha, post-emergence spray, evaluated after 13 days (100=total damage to plant; 0=no damage to plant), read-out: Percentage damage caused to weed species, post-emergence, AMARE.
Setting [23] is: Rate 1,000 g/ha, post-emergence spray, evaluated after 13 days (100=total damage to plant; 0=no damage to plant), read-out: Percentage damage caused to weed species, post-emergence, IPOHE.
The mark [24] stands for this setting: Rate 1,000 g/ha, post-emergence spray, evaluated after 13 days (100=total damage to plant; 0=no damage to plant), read-out: Percentage damage caused to weed species, post-emergence, SOLNI.
Where [25] appears, read: pre-emergence, 1,000 g/ha, evaluated after 13 days (100=total damage; 0=no damage), read-out: Percentage damage ALOMY.
Setting [26] is: pre-emergence, 1,000 g/ha, evaluated after 13 days (100=total damage; 0=no damage), read-out: Percentage damage ECHCG.
[27] abbreviates: pre-emergence, 1,000 g/ha, evaluated after 13 days (100=total damage; 0=no damage), read-out: Percentage damage SETFA.
The mark [28] stands for this setting: pre-emergence, 1,000 g/ha, evaluated after 13 days (100=total damage; 0=no damage), read-out: Percentage damage AMARE.
The mark [29] stands for this setting: pre-emergence, 1,000 g/ha, evaluated after 13 days (100=total damage; 0=no damage), read-out: Percentage damage IPOHE.
The mark [30] stands for this setting: pre-emergence, 1,000 g/ha, evaluated after 13 days (100=total damage; 0=no damage), read-out: Percentage damage SOLNI.
Where [31] appears, read: post-emergence, 1,000 g/ha, evaluated after 13 days (100=total damage; 0=no damage), read-out: Percentage damage caused to weed species, ALOMY.
Where [32] appears, read: post-emergence, 1,000 g/ha, evaluated after 13 days (100=total damage; 0=no damage), read-out: Percentage damage caused to weed species, ECHCG.
The mark [33] stands for this setting: post-emergence, 1,000 g/ha, evaluated after 13 days (100=total damage; 0=no damage), read-out: Percentage damage caused to weed species, SETFA.
[34] abbreviates: post-emergence, 1,000 g/ha, evaluated after 13 days (100=total damage; 0=no damage), read-out: Percentage damage caused to weed species, AMARE.
[35] abbreviates: post-emergence, 1,000 g/ha, evaluated after 13 days (100=total damage; 0=no damage), read-out: Percentage damage caused to weed species, IPOHE.
Where [36] appears, read: post-emergence, 1,000 g/ha, evaluated after 13 days (100=total damage; 0=no damage), read-out: Percentage damage caused to weed species, SOLNI.

On to `CCCOC(=O)c1nc(C2CC2)nc(NCc2ccco2)c1Cl` [Compound 198-125, 5-chloro-2-cyclopropyl-4-[(furan-2-ylmethyl)-amino]-6-^npropoxycarbonylpyrimidine], for which the pest or weed control at 1000 g/ha in [1] (setting [13]) was determined as 40%; in assay [2] (setting [14]), 80%; with Setaria faberi (SETFA) [3] (setting [15]) it was 80%; in assay [4] (setting [16]), 100%; in assay [5] (setting [17]) it was 100%; in the assay on Solanum nigrum (SOLNI) [6] (setting [18]), 100%. Besides, the pest or weed control at 1000 g/ha in assay [7] (setting [19]) amounted to 40%; in assay [8] (setting [20]), 80%; with Setaria faberi (SETFA) [9] (setting [21]), 90%; in assay [10] (setting [22]), 100%; in [11] (setting [23]), 100%; in the assay on Solanum nigrum (SOLNI) [12] (setting [24]) it was 90%.
For the compound `COC(=O)c1nc(C2CC2)nc(N(C)Cc2cccc(Cl)c2)c1Cl` [Compound 5-62, 5-Chloro-4-[N-(3-chlorophenyl-methyl)-N-methyl-amino]-2-cyclo-propyl-6-methoxy-carbonylpyrimidine], the pest or weed control at 1000 g/ha in [1] (setting [13]) came to 0%; in [2] (setting [14]), 0%; with Setaria faberi (SETFA) [3] (setting [15]) it was 10%; in assay [4] (setting [16]) it was 100%; in assay [5] (setting [17]) it was 60%; with Solanum nigrum (SOLNI) [6] (setting [18]) it was 20%. For the same compound, the pest or weed control at 1000 g/ha worked out at 20% in assay [7] (setting [19]); 30% in assay [8] (setting [20]); 40% in the assay on Setaria faberi (SETFA) [9] (setting [21]); 100% in [10] (setting [22]); 90% in assay [11] (setting [23]); 80% with Solanum nigrum (SOLNI) [12] (setting [24]).
`COC(=O)c1nc(-c2ccc(OC(F)(F)F)cc2)nc(NCc2ccco2)c1Cl` [Compound 248-48, 5-Chloro-4-(furan-2-ylmethylamino)-6-methoxycarbonyl-2-(4-trifluoromethoxy-phenyl)pyrimidine]: the pest or weed control at 1000 g/ha in [1] (setting [13]) is 0%; in assay [2] (setting [14]), 0%; with Setaria faberi (SETFA) [3] (setting [15]) it was 0%; in assay [4] (setting [16]), 60%; in assay [5] (setting [17]), 0%; in the assay with Solanum nigrum (SOLNI) [6] (setting [18]) it was 20%. The pest or weed control at 1000 g/ha in [7] (setting [19]) stood at 0%; in assay [8] (setting [20]), 40%; with Setaria faberi (SETFA) [9] (setting [21]) it was 0%; in assay [10] (setting [22]) it was 70%; in assay [11] (setting [23]), 50%; with Solanum nigrum (SOLNI) [12] (setting [24]), 70%.
For the compound `COC(=O)c1nc(C2CC2)nc(NCC2CCCCCCC2)c1Cl` [Compound 4-52, 5-Chloro-4-cyclooctylmethyl-amino-2-cyclo-propyl-6-methoxy-carbonylpyrimidine], the pest or weed control at 1000 g/ha in [1] (setting [25]) came to 0%; in assay [2] (setting [26]), 0%; with Setaria faberi (SETFA) [3] (setting [27]), 0%; in [4] (setting [28]) it was 40%; in assay [5] (setting [29]), 0%; with Solanum nigrum (SOLNI) [6] (setting [30]), 30%. The pest or weed control at 1000 g/ha in [7] (setting [31]) came out at 0%; in assay [8] (setting [32]) it was 20%; in the assay with Setaria faberi (SETFA) [9] (setting [33]), 20%; in [10] (setting [34]) it was 30%; in assay [11] (setting [35]), 50%; with Solanum nigrum (SOLNI) [12] (setting [36]) it was 60%.
As for `COC(=O)c1nc(C2CC2)nc(NCC(F)c2ccc(F)cc2F)c1Cl` (stereo not drawn) [Compound 4-238, 5-Chloro-2-cyclopropyl-4-[2-(2,4-difluoro-phenyl)-2-fluoro-ethylamino]-6-methoxycarbonyl-pyrimidine], the pest or weed control at 1000 g/ha in [1] (setting [25]) stood at 0%; in assay [2] (setting [26]), 0%; in the assay on Setaria faberi (SETFA) [3] (setting [27]) it was 0%; in assay [4] (setting [28]), 10%; in assay [5] (setting [29]) it was 0%; with Solanum nigrum (SOLNI) [6] (setting [30]), 50%. In addition, the pest or weed control at 1000 g/ha in assay [7] (setting [31]) is 10%; in assay [8] (setting [32]) it was 0%; with Setaria faberi (SETFA) [9] (setting [33]) it was 0%; in [10] (setting [34]) it was 90%; in assay [11] (setting [35]) it was 60%; in the assay with Solanum nigrum (SOLNI) [12] (setting [36]), 70%.
`COC(=O)c1nc(C2CC2)nc(NCCCn2ccnc2)c1Cl` [Compound 4-250, 5-Chloro-2-cyclopropyl-4-[3-(imidazol-1-yl)propylamino]-6-methoxycarbonyl-pyrimidine]: the pest or weed control at 1000 g/ha worked out at 0% in assay [1] (setting [25]); 0% in [2] (setting [26]); 0% in the assay on Setaria faberi (SETFA) [3] (setting [27]); 90% in assay [4] (setting [28]); 80% in assay [5] (setting [29]); 40% in the assay on Solanum nigrum (SOLNI) [6] (setting [30]). Further, the pest or weed control at 1000 g/ha was determined as 0% in [7] (setting [31]); 30% in [8] (setting [32]); 50% in the assay with Setaria faberi (SETFA) [9] (setting [33]); 100% in assay [10] (setting [34]); 100% in assay [11] (setting [35]); 70% with Solanum nigrum (SOLNI) [12] (setting [36]).
